The source of these data is patent US7601687B2, “Mechanism for identifying drugs for the treatment of type II diabetes” (BioCrine AB, priority 2006, dated 2009).

In one test the test system is PKB/c-Akt. The experiment in a line: PKB/c-Akt Ser473 phosphorylation and PKB activity in HIT cells. In kind it is cell-based, hamster. The protocol:
Phosphorylated PKB/c-Akt was analyzed by employing the PhosphoPlus Akt(Ser473) Antibody Kit (New England Biolabs) according to the manufacturer's instructions. Briefly, HIT cells were cultured as described above. […] Following centrifugation of the lysate for 20 min at 14,000×g and 4° C., aliquotes of the supernatant containing 200 μg protein were separated by SDS-PAGE over a 7.5% polyacrylamide gel. Proteins were electro-transferred onto PVDF-membrane (Immobilon-P, Millipore) overnight at stabilized 125 mA. Immunoblotting was performed with either rabbit polyclonal Phospho-Akt(Ser473) antibody or with rabbit polyclonal […] antibody and HRP-conjugated secondary antibodies. For detection the membrane was incubated with LumiGLO containing peroxide and exposed to X-ray film.
Analysis of PKB/Akt activity was performed employing the Akt1-PKBα e Immunoprecipitation Kinase Assay Kit (Upstate Biotech.) according to the manufacturer's instructions. Lysates of HIT cells containing 1 mg of protein were subjected to immunoprecipitation. The immunoprecipitate was used for PKB/Akt kinase assay using γ[^32P]-ATP and Akt/SGK-specific substrate peptide. Phosphorylated substrates were blotted onto phosphocellulose P81 paper and analyzed by LSC.

For the next test, the system named is βGK mRNA. The experiment in a line: βGK mRNA steady-state levels (comparative RT-PCR) in cultured pancreatic islets / insulin-producing cells. In kind it is cell-based, rat. The protocol: Insulin-producing HIT-T15 cells were obtained from ATCC. HIT cells were reported to show glucose responsiveness at subphysiological concentrations between 0.1 and 2 mM (Sharma et al., 1995). HIT cells were grown in RPMI 1640 medium supplemented with 100 units/ml penicillin, 100 μg/ml streptomycin, 2 mM glutamine and 10% fetal calf serum at 5% CO2 and 37° C. Pancreatic islets were isolated from normally fed male Wistar rats and from mice by collagenase digestion. Isolated islets were incubated overnight at 5% CO2 and 37° C. in RPMI 1640 medium, supplemented as described above. Transfection of HIT-T15 and islet cells was performed overnight by the lipofectamine technique in RPMI 1640 medium, without serum and antibiotics. For on-line monitoring, cells were grown and transfected on 24-mm glass coverslips. Following transfection, HIT cells were cultured for 12-18 h in RPMI 1640 medium containing 0.1 mM glucose, 10% fetal calf serum and supplemented as above. Before stimulation, islets and islet cells were incubated for 2 h in RPMI 1640 medium, supplemented as above but containing 3 mM glucose. All expression constructs were prepared using the Qiagen Plasmid Maxi Kit (Qiagen), except those used to produce the adenoviruses which where purified by ultracentrifugation via a CsCI-gradient (as described in Sambrook et al, 1989).
All experiments were performed in RPMI 1640 medium, supplemented as above. Protein kinase inhibitors, antibodies or nifedipine were added to the culture medium 30 min prior to stimulation and were kept in the medium throughout stimulation. After stimulation islets, islet cells and HIT cells were cultured further at substimulatory glucose concentrations (0.1 mM for HIT cells and 3 mM for islets and islet cells). For RNA-analysis, islets and cells were harvested 60 min after start of stimulation, if not indicated otherwise. For analysis of protein kinase activities or tyrosine phosphorylation, cells were harvested immediately following stimulation.
RNA Analysis Levels of βGK mRNA were analyzed by RNase-protection assays and comparative RT-PCR. […] Quantification of the protected complexes was performed by phosphorimaging. […] Levels of μGK mRNA were analyzed by RT-PCR using primers 5′-[…]-3′(SEQ ID NO: 1) and 5′-[…]-3′(SEQ ID NO: 2) for characterizing μGK mRNA in HIT cells and primers 5′-[…]-3′(SEQ ID NO: 3) and 5′-[…]-3′(SEQ ID NO: 4) for μGK mRNA in rat and mouse pancreatic islets and islet cells. Levels of μ-actin mRNA were analyzed by RT-PCR using primers 5′-[…]-3′(SEQ ID NO: 5) and 5′-[…]-3′(SEQ ID NO: 6). […] PCR products were separated on a 6% polyacrylamide sequencing gel and analyzed by phosphorimaging. […]

For another test, the system named is rat insulin-I promoter. Briefly: Insulin promoter-driven DsRed expression in co-transfected human islet cells. In kind it is cell-based. The protocol:
Data are presented as the ratio of fluorescence obtained at minutes 240 and 60 and represent mean values ±S.E. (n=11).
Detection of fluorescence by digital imaging fluorescence microscopy was performed as described previously (Leibiger et al., 1998a; Leibiger et al., 1998b). Briefly, transfected cells were grown on 24-mm glass coverslips. After stimulation the coverslips were placed into a perifusion chamber which was mounted on an inverted microscope (Zeiss Axiovert 135TV). Temperature was kept at 37° C. and the cells were perfused with RPMI 1640 medium. The objective lens used was a Zeiss-Fluar ×40/1.30 oil Imm Korr. Fluorescence imaging was performed with a cooled charged-coupled device camera (CH250 with KAF 1400, Photometrics, Tucson, Ariz.) connected to an imaging system (Inovision) with fluorescence excitation from a SPEX fluorolog-2 CM1T11I spectrofluorometer (Spex Industries). […]
On-line monitoring was initiated 60 min following the start of stimulation and the 60-min value of GFP- or DsRed-fluorescence was set to 1.0. Cells to be monitored were chosen randomly at minute 60 from six fields of vision and fluorescence was monitored up to minute 240. By overlaying the fluorescence and phase-contrast images, the position of cells on the coverslip could be checked. Fluorescence intensity was calculated by using the ISee-software for UNIX (Inovision Corporation).

`CC(=O)OCOC(c1ccc2ccccc2c1)P(=O)(OCOC(C)=O)OCOC(C)=O` (stereo not drawn) [HNMPA-(AM)3]: the “effect on glucose-induced activation of PKB” value in the test on PKB/c-Akt (FIG. 7E, PKB activity 10 min after start of glucose stimulation) is reported as “abolished”.
In the case of “autocamtide-2 related inhibitory peptide”, the “effect of inhibitor on insulin-stimulated βGK mRNA steady-state levels” value in the test with βGK mRNA (5 mU/ml insulin, 400 nM AC, FIG. 5B) is given as “altered neither”. In addition, the “effect of inhibitor on insulin-stimulated insulin gene expression” value in the test with rat insulin-I promoter (400 nM AC, 10 nM rapamycin, low concentrations: 50 nM wortmannin, 25 μM LY 294002 (FIG. 15)) was “sensitive”.
Consider insulin, for which the “exogenous insulin sufficient to evoke βGK mRNA levels” value in the test on βGK mRNA (pancreatic islets, fully supplemented culture medium, substimulatory glucose) is 50 μU insulin per ml. For the same compound, the “time following stimulation at which PKB activation (Ser473 phosphorylation) was observed” value with PKB/c-Akt (16.7 mM glucose or 5 mU insulin/ml at substimulatory glucose) came out at 2 min. Moreover, the “insulin promoter-driven DsRed expression upon insulin stimulation” value in the test on rat insulin-I promoter (5 mU/ml insulin for 5 min, sub-stimulatory glucose) is on record as “up-regulation”.
